The record followed here is PubChem BioAssay (NCI).

What all share (assay): NCI-60 cell line screen, 48 h
Assay [1] concerns COLO 205 colon.
Assay [2] relates to EKVX NSCLC.
Assay [3] deals with MALME-3M melanoma.
Assay [4] concerns RPMI-8226 leukemia.
Assay [5] relates to HCT-116 colon.
Assay [6] has as its system TK-10 renal.
In assay [7] the test system is SK-MEL-2 melanoma.
The subject of assay [8] is A549 NSCLC.
Assay [9] relates to SN12C renal.
For assay [10], the system named is HOP-92 NSCLC.
Assay [11] has as its system SF-268 CNS.
Assay [12] concerns SK-MEL-28 melanoma.
Assay [13] relates to SK-MEL-5 melanoma.
For assay [14], the system named is ACHN renal.
Assay [15] concerns HOP-62 NSCLC.

Molecules are shown by their SMILES.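 In this assay, cells in 96-well plates receive the compound at five concentrations for 48 hours. Endpoints are linearly interpolated between the surrounding concentrations. The concentration for full growth arrest is given as TGI.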

On to `O=C(N/N=C(/c1nc2ccc([N+](=O)[O-])cc2[nH]c1=O)C(O)c1ccc([N+](=O)[O-])cc1)c1ccncc1` (stereo not drawn), for which the TGI in assay [1], in assay [2], in assay [3], in assay [4], in [5] and in [6] was greater than 100 µM throughout. In addition, the TGI in assay [7], in assay [8], in assay [9], in assay [10], in assay [11] and in [12] was greater than 100 µM throughout. Besides, the TGI in assay [13], in assay [14] and in assay [15] was greater than 100 µM in each case.
In the case of `CCOC(=O)c1cnc2c(ccc3[nH]cccc32)c1=O`, the TGI in [1], in assay [2], in [3], in assay [5], in assay [6] and in assay [7] was greater than 100 µM each time. In addition, the TGI in [8], in assay [9], in assay [11], in assay [12], in assay [13] and in assay [14] was greater than 100 µM in each case. The TGI in assay [15] was greater than 100 µM.
With `CC1(C)OCN(c2ccc(S(N)(=O)=O)cc2)Cn2c1nc1ccccc12`, the TGI in assay [1], in [2], in assay [3], in assay [4], in [5] and in assay [6] was greater than 100 µM throughout. In addition, the TGI in assay [7], in assay [8], in [9], in assay [10], in assay [11] and in [12] was greater than 100 µM in each case. Further, the TGI in assay [14] and in assay [15] was greater than 100 µM each time.
As to `COc1cc(C2C(C(=O)Nc3ccc([N+](=O)[O-])cc3)=C(C)NC(C)=C2C(=O)Nc2ccc([N+](=O)[O-])cc2)ccc1O`, the TGI in assay [1] was 30.9 µM; in [2], greater than 100 µM; in [3] it was 60 µM; in [4] it was 59.6 µM; in [5], 30.9 µM; in [6], 68.7 µM. Moreover, the TGI is 34.7 µM in assay [7]; greater than 100 µM in [8]; 36.4 µM in assay [9]; 57 µM in [10]; greater than 72.6 µM in [11]; 31.3 µM in assay [12]. Also, the TGI in [13] was greater than 100 µM; in [14], greater than 67.2 µM; in assay [15], 35 µM.
Turning to `Clc1ccc(CCc2ccncn2)c(Cl)c1`, the TGI in [1], in assay [2], in [3], in [4], in [5] and in [6] was greater than 100 µM in each case. In addition, the TGI in [7], in [8], in assay [9], in assay [10], in [11] and in assay [12] was greater than 100 µM throughout. The TGI in [13] is 51.2 µM; in assay [14] it was greater than 100 µM; in [15], greater than 100 µM.
Turning to `COc1ccccc1-n1c(NN)nc2ccc(Br)cc2c1=O`, the TGI in assay [1] is greater than 100 µM; in [2], greater than 100 µM; in [3] it was greater than 100 µM; in [4], greater than 100 µM; in [6] it was 79.5 µM; in [7] it was greater than 100 µM. In addition, the TGI is greater than 100 µM in assay [8]; greater than 100 µM in [9]; greater than 100 µM in assay [11]; greater than 100 µM in [12]; 43 µM in assay [13]; greater than 100 µM in assay [14]. The TGI in assay [15] is greater than 100 µM.
As to `CCCCNC(=NCc1ccccc1)NC#N`, the TGI in [1], in assay [2], in assay [3], in [4], in assay [5] and in assay [6] was greater than 100 µM each time. For the same compound, the TGI in assay [7], in assay [8], in assay [9], in [10], in [11] and in [12] was greater than 100 µM in each case. For the same compound, the TGI in assay [13], in assay [14] and in assay [15] was greater than 100 µM in each case.
In the case of `CC12C(=C(C#N)C(=N)N1c1ccc(Cl)c(Cl)c1)C=C(O)CC2SCCS(=O)(=O)O` (stereo not drawn), the TGI in assay [1], in [2], in assay [4], in [5], in assay [6] and in assay [7] was greater than 100 µM each time. Besides, the TGI in assay [8], in [9], in assay [10], in [11], in [12] and in [13] was greater than 100 µM in each case. In addition, the TGI in assay [14] and in [15] was greater than 100 µM each time.
As to `N#C/C(=C\c1cc(O)ccc1O)C(N)=O`, the TGI in assay [1] was greater than 100 µM; in [2], greater than 100 µM; in assay [3], greater than 100 µM; in [4], 65.6 µM; in assay [5] it was greater than 100 µM; in assay [6] it was greater than 100 µM. Besides, the TGI in assay [7], in assay [8], in [9], in assay [10], in assay [11] and in assay [12] was greater than 100 µM throughout. The TGI in [14] and in assay [15] was greater than 100 µM in each case.
